In ChEMBL document CHEMBL3886628, “Substituted 3-(biphenyl-3-yl)-4-hydroxy-8-methoxy-1-azaspiro[4.5]dec-3-en-2-one” (2016) one finds IC50 data, which are given here for three compounds.

Test [1] addresses Acetyl-CoA carboxylase 1 (Homo sapiens, UniProt Q13085). As to the kind of experiment: Typical concentrations were in the range of 1.75 μl.
Test [2] has as its target Acetyl-CoA carboxylase 2 (Homo sapiens, UniProt O00763).

pIC50: −log10 of the molar value. “And” between values parts separate entries of the source, which are not always exact repeats. Equal values may be shown once.

Acetyl-CoA carboxylase 2, sequence (O00763 whole entry): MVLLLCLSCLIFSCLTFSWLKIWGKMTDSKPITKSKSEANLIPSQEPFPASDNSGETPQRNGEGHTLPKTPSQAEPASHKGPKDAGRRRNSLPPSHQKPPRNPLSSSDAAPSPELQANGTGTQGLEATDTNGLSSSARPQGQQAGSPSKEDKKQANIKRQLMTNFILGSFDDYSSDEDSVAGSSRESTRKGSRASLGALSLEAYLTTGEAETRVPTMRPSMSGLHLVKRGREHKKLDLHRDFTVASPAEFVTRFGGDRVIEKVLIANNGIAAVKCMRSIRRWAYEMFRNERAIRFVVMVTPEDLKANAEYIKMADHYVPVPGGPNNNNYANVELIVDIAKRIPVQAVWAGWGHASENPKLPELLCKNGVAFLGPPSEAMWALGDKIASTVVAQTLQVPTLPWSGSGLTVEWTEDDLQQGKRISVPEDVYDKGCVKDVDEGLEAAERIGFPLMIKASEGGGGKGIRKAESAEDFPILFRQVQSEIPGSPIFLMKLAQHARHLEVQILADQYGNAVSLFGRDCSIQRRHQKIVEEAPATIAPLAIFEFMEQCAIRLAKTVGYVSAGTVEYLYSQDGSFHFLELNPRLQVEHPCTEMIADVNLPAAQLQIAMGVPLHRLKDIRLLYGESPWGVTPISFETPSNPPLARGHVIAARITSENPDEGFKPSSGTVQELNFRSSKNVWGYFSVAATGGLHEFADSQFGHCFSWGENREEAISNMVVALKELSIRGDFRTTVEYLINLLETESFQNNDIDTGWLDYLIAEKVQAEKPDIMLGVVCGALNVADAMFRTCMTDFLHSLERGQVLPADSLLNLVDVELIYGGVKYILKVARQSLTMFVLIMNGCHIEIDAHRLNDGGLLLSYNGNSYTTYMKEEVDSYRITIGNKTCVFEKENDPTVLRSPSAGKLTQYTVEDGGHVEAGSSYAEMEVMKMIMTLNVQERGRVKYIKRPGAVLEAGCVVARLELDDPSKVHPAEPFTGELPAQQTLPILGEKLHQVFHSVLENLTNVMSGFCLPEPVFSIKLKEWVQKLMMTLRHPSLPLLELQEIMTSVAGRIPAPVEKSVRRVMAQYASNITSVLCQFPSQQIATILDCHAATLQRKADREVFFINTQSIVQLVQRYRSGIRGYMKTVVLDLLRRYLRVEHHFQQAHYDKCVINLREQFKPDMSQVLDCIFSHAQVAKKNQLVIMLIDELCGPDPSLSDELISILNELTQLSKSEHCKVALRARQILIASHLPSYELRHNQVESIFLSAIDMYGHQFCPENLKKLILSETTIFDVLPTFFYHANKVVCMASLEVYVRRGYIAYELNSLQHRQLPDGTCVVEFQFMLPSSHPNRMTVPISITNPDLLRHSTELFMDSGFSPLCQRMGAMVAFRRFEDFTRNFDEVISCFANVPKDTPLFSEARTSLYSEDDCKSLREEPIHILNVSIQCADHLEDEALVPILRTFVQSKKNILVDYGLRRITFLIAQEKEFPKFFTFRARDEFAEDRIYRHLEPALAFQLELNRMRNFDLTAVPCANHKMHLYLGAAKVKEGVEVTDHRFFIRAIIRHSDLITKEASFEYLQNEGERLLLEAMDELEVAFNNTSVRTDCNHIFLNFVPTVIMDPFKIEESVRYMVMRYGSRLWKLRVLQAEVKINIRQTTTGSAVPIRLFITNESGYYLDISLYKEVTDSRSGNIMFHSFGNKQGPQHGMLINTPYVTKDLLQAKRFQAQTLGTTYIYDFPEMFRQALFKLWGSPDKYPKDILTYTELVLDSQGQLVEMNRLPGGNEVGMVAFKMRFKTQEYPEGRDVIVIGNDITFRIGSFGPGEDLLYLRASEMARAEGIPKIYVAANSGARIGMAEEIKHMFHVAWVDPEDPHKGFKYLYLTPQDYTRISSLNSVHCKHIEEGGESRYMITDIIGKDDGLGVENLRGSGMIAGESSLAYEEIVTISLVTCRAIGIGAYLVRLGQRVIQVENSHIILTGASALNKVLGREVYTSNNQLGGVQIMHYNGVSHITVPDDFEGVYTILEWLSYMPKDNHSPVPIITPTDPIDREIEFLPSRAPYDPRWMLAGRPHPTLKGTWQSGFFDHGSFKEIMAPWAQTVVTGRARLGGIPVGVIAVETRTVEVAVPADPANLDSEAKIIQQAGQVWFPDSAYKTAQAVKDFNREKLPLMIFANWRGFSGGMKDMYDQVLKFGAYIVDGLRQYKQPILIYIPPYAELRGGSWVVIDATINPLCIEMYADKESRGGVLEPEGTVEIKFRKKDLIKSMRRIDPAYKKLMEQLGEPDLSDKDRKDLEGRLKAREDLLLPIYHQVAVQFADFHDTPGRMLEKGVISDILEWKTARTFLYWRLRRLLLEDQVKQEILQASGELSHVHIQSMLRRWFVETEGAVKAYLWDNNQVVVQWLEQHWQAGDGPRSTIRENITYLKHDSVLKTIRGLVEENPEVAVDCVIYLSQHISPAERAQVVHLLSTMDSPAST

For the compound `CO[C@]1(C(F)(F)F)CC[C@]2(CC1)NC(=O)C(c1cc(-c3ccc(Cl)c(F)c3)ccc1C)=C2O`, the negative-log IC50 (pIC50) in test [1] is 7.04 and 6.92; in test [2], 5.56 and 5.77 and 5.70. Consider `COC[C@]1(OC)CC[C@@]2(CC1)NC(=O)C(c1cc(-c3ccc(Cl)c(F)c3)ccc1C)=C2O`, for which the pIC50 in test [1] is 6.98 and 6.88 and 7.08. Same read-out and setting: with `CO[C@]1(C(F)(F)F)CC[C@]2(CC1)NC(=O)C(c1cc(-c3ccc(Cl)cc3)ccc1C)=C2O` the figure was 6.64 and 6.61 and 7.36 and 7.17 and 7.11 and 6.79 and 6.73 and 7.00.

By pIC50 is commonly meant the negative decadic logarithm of the IC50, by convention in mol/L. Read a low pIC50 as a large IC50.
